Source: PubChem BioAssay AID2060484 (Molecular Pharmacology Branch, DTP, NCI, 2025)

Tested on: SUM149PT spheroids with HUVEC/MSC, viability
Test: Anticancer human tumor SUM149PT cell line growth inhibition [GQUAD];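 note: spheroids exposed to drugs for seven days before readout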;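 for viability, T/C: percent viability relative to DMSO vehicle control taken as 100%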
Conditions: for IC50: curve of first compound; for viability, T/C: stronger effect = lower value
Method in brief: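 Viability of tumor cells grown as complex spheroids with endothelial and stromal cells, exposed to drug combinations. Top concentration at or near clinical Cmax (else 10 microM), diluted in half-log increments.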

[1] = second compound 0.0316 µM, first compound 0.0316 µM
[2] = second compound 0.0316 µM, first compound 0.1 µM
[3] = second compound 0.0316 µM, first compound 0.316 µM
[4] = second compound 0.0316 µM, first compound 1 µM
[5] = second compound 0.0316 µM, first compound 3.16 µM
[6] = second compound 0.0316 µM, first compound 10 µM
[7] = second compound 0.1 µM, first compound 0.0316 µM
[8] = second compound 0.1 µM, first compound 0.1 µM
[9] = second compound 0.1 µM, first compound 0.316 µM
[10] = second compound 0.1 µM, first compound 1 µM
[11] = second compound 0.1 µM, first compound 3.16 µM
[12] = second compound 0.1 µM, first compound 10 µM
[13] = second compound 0.316 µM, first compound 0.0316 µM
[14] = second compound 0.316 µM, first compound 0.1 µM
[15] = second compound 0.316 µM, first compound 0.316 µM
[16] = second compound 0.316 µM, first compound 1 µM
[17] = second compound 0.316 µM, first compound 3.16 µM
[18] = second compound 0.316 µM, first compound 10 µM
[19] = second compound 1 µM, first compound 0.0316 µM
[20] = second compound 1 µM, first compound 0.1 µM
[21] = second compound 1 µM, first compound 0.316 µM
[22] = second compound 1 µM, first compound 1 µM
[23] = second compound 1 µM, first compound 3.16 µM
[24] = second compound 1 µM, first compound 10 µM
[25] = second compound 3.16 µM, first compound 0.0316 µM
[26] = second compound 3.16 µM, first compound 0.1 µM
[27] = second compound 3.16 µM, first compound 0.316 µM
[28] = second compound 3.16 µM, first compound 1 µM
[29] = second compound 3.16 µM, first compound 3.16 µM
[30] = second compound 3.16 µM, first compound 10 µM
[31] = second compound 10 µM, first compound 0.0316 µM
[32] = second compound 10 µM, first compound 0.1 µM
[33] = second compound 10 µM, first compound 0.316 µM
[34] = second compound 10 µM, first compound 1 µM
[35] = second compound 10 µM, first compound 3.16 µM
[36] = second compound 10 µM, first compound 10 µM

Cc1cccc(N(C)C(=O)C2C(O)CCN2c2nc(C)cc(C(F)(F)F)c2C#N)c1 (centres undefined) + Cc1[nH]c2ccc(F)cc2c1-c1nc2c3cccnc3c3ncccc3c2[nH]1
IC50 (second compound 0.0316 µM): > 10000 nM
IC50 (second compound 0.1 µM): > 10000 nM
IC50 (second compound 0.316 µM): > 10000 nM
IC50 (second compound 1 µM): > 10000 nM
IC50 (second compound 3.16 µM): > 10000 nM
IC50 (second compound 10 µM): > 10000 nM
viability, T/C [1]: 98.2%
viability, T/C [2]: 92.6%
viability, T/C [3]: 105%
viability, T/C [4]: 95.4%
viability, T/C [5]: 96.5%
viability, T/C [6]: 92.6%
viability, T/C [7]: 102%
viability, T/C [8]: 101%
viability, T/C [9]: 104%
viability, T/C [10]: 96.7%
viability, T/C [11]: 98%
viability, T/C [12]: 99%
viability, T/C [13]: 97.8%
viability, T/C [14]: 94.7%
viability, T/C [15]: 96%
viability, T/C [16]: 97.3%
viability, T/C [17]: 96.1%
viability, T/C [18]: 95.5%
viability, T/C [19]: 97.3%
viability, T/C [20]: 102%
viability, T/C [21]: 91.1%
viability, T/C [22]: 98%
viability, T/C [23]: 91.2%
viability, T/C [24]: 108%
viability, T/C [25]: 96.5%
viability, T/C [26]: 102%
viability, T/C [27]: 105%
viability, T/C [28]: 105%
viability, T/C [29]: 106%
viability, T/C [30]: 102%
viability, T/C [31]: 92.5%
viability, T/C [32]: 93%
viability, T/C [33]: 105%
viability, T/C [34]: 84.8%
viability, T/C [35]: 103%
viability, T/C [36]: 96.7%

CC1COCCN1c1cc(-c2ccnn2C)c2ccnc(-c3ccn[nH]3)c2n1 (centres undefined) + Cc1[nH]c2ccc(F)cc2c1-c1nc2c3cccnc3c3ncccc3c2[nH]1
IC50 (second compound 0.0316 µM): 89.1 nM
IC50 (second compound 0.1 µM): 95.5 nM
IC50 (second compound 0.316 µM): 107 nM
IC50 (second compound 1 µM): 120 nM
IC50 (second compound 3.16 µM): 97.2 nM
IC50 (second compound 10 µM): 93.9 nM
viability, T/C [1]: 90.7%
viability, T/C [2]: 45.6%
viability, T/C [3]: 25.8%
viability, T/C [4]: 26.4%
viability, T/C [5]: 27%
viability, T/C [6]: 26.3%
viability, T/C [7]: 82.7%
viability, T/C [8]: 48.6%
viability, T/C [9]: 25.1%
viability, T/C [10]: 21.8%
viability, T/C [11]: 28.6%
viability, T/C [12]: 25.7%
viability, T/C [13]: 95.1%
viability, T/C [14]: 51.4%
viability, T/C [15]: 23.3%
viability, T/C [16]: 23.9%
viability, T/C [17]: 25.8%
viability, T/C [18]: 25.3%
viability, T/C [19]: 92.4%
viability, T/C [20]: 54.5%
viability, T/C [21]: 26.4%
viability, T/C [22]: 26.4%
viability, T/C [23]: 24.8%
viability, T/C [24]: 26.6%
viability, T/C [25]: 98.2%
viability, T/C [26]: 48.8%
viability, T/C [27]: 25.4%
viability, T/C [28]: 26.2%
viability, T/C [29]: 25.7%
viability, T/C [30]: 22.5%
viability, T/C [31]: 92.7%
viability, T/C [32]: 47.6%
viability, T/C [33]: 24.2%
viability, T/C [34]: 27.4%
viability, T/C [35]: 23%
viability, T/C [36]: 24.1%
